Measured values taken from patent US20140171629A1, “MEDICINAL AGENT FOR MEDICAL APPLICATIONS” (HITACHI ALOKA MEDICAL, LTD., priority 2011, published 2014).

How the values were obtained:
[1] = system: rhabdomyosarcoma cell line (HUMENS); assay: Survival rate of confluent HUMENS cells 15 hours after adding anticancer agent (trypan blue count); format: cell-based; details: FIG. 2
Procedure: 1. Cells were plated on a plate and cultured to a confluent state using a DMEM/F12 culture medium supplemented with 15% fetal bovine serum.
2. The culture medium was removed and replaced with a serum-free DMEM/F12 culture medium supplemented with a given amount of an anticancer agent, and the cells were cultured for 15 hours.
3. The culture medium was removed, and the cells were washed with Hanks' solution and detached with trypsin. The detached cells were transferred to a tube and centrifuged.
4. The supernatant was removed, and the cells were suspended in a given amount of a culture medium.
5. An aliquot of the cell suspension was taken and the same amount of trypan blue was added thereto. Then, the cells were counted using a hemocytometer.
The percentage of incorporation of a dye was counted 15 hours after adding an anticancer agent (s-PTX, s-CDDP, s-CBDCA, s-ADM, or s-CPA (all of which are in Example 8), PTX, CDDP, CBDCA, ADM, or CPA (all of which are in Comparative Example 2)) to confluent cells (HUMENS) in the same manner as in Example 7 or Comparative Example 1, except that a rhabdomyosarcoma cell line (HUMENS) established from alveolar rhabdomyosarcoma obtained from the mammary gland was used as the cells in place of NUTOS.

[2] = system: rhabdomyosarcoma cell line (NUTOS); assay: Survival rate of confluent NUTOS cells 15 hours after adding anticancer agent (trypan blue count); format: cell-based, human; details: serum-free DMEM/F12, 15 hours, n=5, FIG. 1
Procedure: A rhabdomyosarcoma cell line (NUTOS) established from alveolar rhabdomyosarcoma developed in the tongue of a child was used. […] In FIG. 1, the horizontal axis represents the concentration (ng/ml) of the added anticancer agent and the longitudinal axis represents the survival rate (%) of the cells after 15 hours (n=5). 1. Cells were plated on a plate and cultured to a confluent state using a DMEM/F12 culture medium supplemented with 15% fetal bovine serum. 2. The culture medium was removed and replaced with a serum-free DMEM/F12 culture medium supplemented with a given amount of an anticancer agent, and the cells were cultured for 15 hours. 3. The culture medium was removed, and the cells were washed with Hanks' solution and detached with trypsin. The detached cells were transferred to a tube and centrifuged. 4. The supernatant was removed, and the cells were suspended in a given amount of a culture medium. 5. An aliquot of the cell suspension was taken and the same amount of trypan blue was added thereto. Then, the cells were counted using a hemocytometer.

[3] = system: NUTOS cells; assay: Incorporation of serotonin into NUTOS cells (culture medium level, anti-serotonin antibody immunostaining); format: cell-based, human; details: serotonin in fetal bovine serum added to culture medium
Procedure: When fetal bovine serum containing serotonin was added to a culture medium containing this NUTOS cell line, the amount of serotonin in the culture medium was decreased. […] The detailed mechanism of this incorporation has not been elucidated yet, and also the role of serotonin incorporated therein has not been elucidated yet.

Row | SMILES | anticancer effect (survival rate of the cells after 15 hours) [1] | anticancer effect (survival rate of the cells after 15 hours) [2] | incorporation into NUTOS cells [3]
1 | COc1cccc2c1C(=O)c1c(O)c3c(c(O)c1C2=O)C[C@@](O)(C(=O)CO)C[C@@H]3O[C@H]1C[C@H](N)[C@H](O)[C@H](C)O1.Cl [ADM, adriamycin] | only a slight anticancer effect | only a slight anticancer effect | –
2 | N.N.O=C([O-])C1(C(=O)[O-])CCC1.[Pt+2] [CBDCA, carboplatin] | exhibited an anticancer effect by itself | exhibited an anticancer effect by itself | –
3 | [NH2][Pt]([NH2])([Cl])[Cl] [CDDP, cisplatin] | exhibited an anticancer effect by itself | exhibited an anticancer effect by itself | –
4 | O=P1(N(CCCl)CCCl)NCCCO1 (centres unmarked) [CPA, cyclophosphamide] | exhibited an anticancer effect by itself | only a slight anticancer effect | –
5 | CC(=O)O[C@H]1C(=O)[C@@]2(C)[C@H]([C@H](OC(=O)c3ccccc3)[C@]3(O)C[C@H](OC(=O)[C@H](O)[C@@H](NC(=O)c4ccccc4)c4ccccc4)C(C)=C1C3(C)C)[C@]1(OC(C)=O)CO[C@@H]1C[C@@H]2O [PTX, paclitaxel] | exhibited an anticancer effect by itself | exhibited an anticancer effect by itself | –
6 | NCCc1c[nH]c2ccc(O)cc12 [serotonin] | – | – | specifically incorporated into the NUTOS cells
